# Reference: publication PMC11316031 (EMBO Reports, 2024)
# pIC50: −log10 of the molar value.
# Tests used:
# [1] = target: T1, Arp2 (subunit of the Arp2/3 complex) (Homo sapiens, UniProt P61158+P61160); experiment: TIRF actin branching rate with GST-N-WASP-VCA-activated recombinant Arp2/[…]; also pyrene actin polymerisation; assay type: biochemical
# T1 construct: gene ACTR2; recombinant human Arp2/3 iso-complex containing Arp3/ArpC1A/C5L; with Arp3 (ACTR3, P61158), within the Arp2/3 complex
# [2] = target: T2, Arp3 (subunit of the Arp2/3 complex) (Homo sapiens, UniProt P61158); experiment: as above; assay type: biochemical
# T2 construct: gene ACTR3; recombinant human Arp2/3 iso-complex containing Arp3/ArpC1A/C5L; with Arp2/3 complex (Arp2, ArpC1A, ArpC2, ArpC3, ArpC4, ArpC5L)
pIC50 [1],pIC50 [2],Structure (SMILES)
4.70,–,Cc1[nH]c2ccccc2c1CCNC(=O)c1ccccc1F [CK-666]
–,6.07,COc1ccc(N2C(=O)CSC2c2cccc(Br)c2)c(OC)c1 (centres unmarked) [CK-869]
